Converted amounts (≈) assume the structure as drawn. Where two headings read alike, the source gives them in different places.

The values below come from US6846825B1, “Antibacterial agents” (British Biotech Pharmaceuticals Limited, priority 1999, dated 2005).

Common to all, as to assay type: cell-based
The subject of assay [1] is Staphylococcus capitis (American Type Culture Collection number 35661). Briefly: Minimal inhibitory concentration (MIC), two fold serial dilutions in 2×YT broth. Particulars: S. capitis ATCC 35661, 2×YT broth, 37° C., 18 hours, lowest concentration that inhibited visible growth. The method, then: (§1) Minimal inhibitory concentrations (MIC) of compounds of the invention against E. coli strains DH5α (Genotype; F-ω80dlacZΔM15Δ(lacZYA-argF)U169 deoR recA1 endA1 hsdR17(rk^−,mk^+)phoA supE44λ^−thi-1 gyrA96 relA1) obtained from Gibco BRL Life Technologies, or Staphylococcus capitis (American Type Culture Collection number 35661) were determined as follows. Stock solutions of each test compound were prepared by dissolution of the compound in dimethylsulfoxide at 10 mM. For the determination of the minimal inhibitory concentration, two fold serial dilutions were prepared in 2×YT broth (typtone 16 g/1, yeast extract 10 g/1, sodium chloride 5 g/1 obtained from BIO 101 Inc, 1070 Joshua Way, Vista, Calif. 92083, USA) to yield 0.05 ml compound-containing medium per well. Inoculate were prepared from cultures grown overnight in 2×YT broth at 37° C. Cell densities were adjusted to absorbance at 660 nm (A660)=0.1; the optical density-standardised preparations were diluted 1:1000 in 2×YT broth; and each well inoculated with 0.05 ml of the diluted bacteria. Microtiter plates were incubated at 37° C. for 18 hours in a humidified incubator. The MIC (μM) was recorded as the lowest drug concentration that inhibited visible growth.

Assay [2] relates to E. coli strains DH5α. Described as above. Particulars: 37° C., 18 hours, lowest concentration that inhibited visible growth. The method, then:
as §1

The test system of assay [3] is Haemophilus Influenza. In words: MIC against respiratory tract pathogens, Microdilution Broth Method (NCCLS). On the procedure:
(§2) In another experiment, the MICs of the compound of Example 91 were determined against certain respiratory tract pathogens, using the Microdilution Broth Method according to the approved standard of the National Committee for Clinical Laboratory Standards procedure (Methods for dilution antimicrobial susceptibility tests for bacteria that grow aerobically—Fourth Edition ISBN 1-56238-309-4).
Background: Dilution methods test growth across graded concentrations, often in twofold steps.

Assay [4] has as its system Streptococcus pneumoniae. The description is as above. The method, then: as §2
For assay [5], the system named is Moraxella catarrhalis. The assay is described as above. On the procedure: as §2
The mark [6] stands for this setting: Staphylococcus capitis, ATCC35661.

In assay [1] (setting [6]), `CCCC[C@H](CN(O)C=O)C(=O)N1CCC(c2ccccc2)CC1` [Example 24, N-Hydroxy-N-[2R-(4-phenyl-piperidine-1-carbonyl)-hexyl]-formamide] displayed an MIC of 100 µM (≈ 33.2 µg/mL).
Turning to `CCCC[C@H](CN(O)C=O)C(=O)N1CCN(CCOCCO)CC1` [Example 29, N-Hydroxy-N-(2R-{4-[2-(2-hydroxy-ethoxy)-ethyl]-piperazine-1-carbonyl}-hexyl)-formamide], the MIC in assay [2] (Escherichia coli) came out at 100 µM (≈ 34.5 µg/mL).
Regarding `CCCC[C@H](CN(O)C=O)C(=O)N[C@H](C(=O)N1CCN(Cc2ccccc2C#N)CC1)C(C)(C)C` [Example 44, 2R-[(Formyl-hydroxy-amino)-methyl]-hexanoic acid {1S-[4-(2-cyano-benzyl)-piperazine-1-carbonyl]-2,2-dimethyl-propyl}-amide], the MIC turned out to be 12 µM (≈ 5.83 µg/mL) in assay [1] and 200 µM (≈ 97.1 µg/mL) in assay [2].
As for `CC(C)(C)[C@H](NC(=O)[C@H](CC1CCCC1)CN(O)C=O)C(=O)N1CCN(Cc2ccccc2C#N)CC1` [Example 50, N-{1S-[4-(2-Cyano-benzyl)-piperazine-1-carbonyl]-2,2-dimethyl-propyl}-2R-cyclopentylmethyl-3-(formyl-hydroxy-amino)-propionamide], the values for the MIC in assay [1] and in assay [2] were 6.2 µM (≈ 3.17 µg/mL) and 200 µM (≈ 102 µg/mL), respectively.
With `CC(C)(C)[C@H](NC(=O)[C@H](CC1CCCC1)CN(O)C=O)C(=O)N1CCN(Cc2ccc(-c3ccccc3)cc2)CC1` [Example 52, N-[1S-(4-Biphenyl-4-ylmethyl-piperazine-1-carbonyl)-2,2-dimethyl-propyl]-2R-cyclopentylmethyl-3-(formyl-hydroxy-amino)-propionamide], the values for the MIC in assay [1] and in assay [2] were 6.2 µM (≈ 3.49 µg/mL) and 200 µM (≈ 113 µg/mL), respectively.
As for `CC(C)(C)[C@H](NC(=O)[C@H](CC1CCCC1)CN(O)C=O)C(=O)N1CCN(Cc2ccc3ccccc3c2)CC1` [Example 54, 2R-Cyclopentylmethyl-N-[2,2-dimethyl-1S-(4-naphthalen-2-ylmethyl-piperazine-1-carbonyl)-propyl]-3-(formyl-hydroxy-amino)-propionamid], the MIC is given as 3.1 µM (≈ 1.66 µg/mL) in assay [1] and 200 µM (≈ 107 µg/mL) in assay [2].
For `CCCC[C@H](CN(O)C=O)C(=O)N[C@H](C(=O)N1CCN(C(=O)c2ccc3c(c2)OCO3)CC1)C(C)(C)C` [Example 55, 2R-[(Formyl-hydroxy-amino)-methyl]-hexanoic acid {1S-[4-(3a,7a-dihydro-benzo[1,3]dioxole-5-carbonyl)-piperazine-1-carbonyl]-2,2-dimethyl-propyl}-amide], the MIC in assay [1] (setting [6]) came out at 6.2 µM (≈ 3.22 µg/mL); in assay [2] (Escherichia coli) it was 200 µM (≈ 104 µg/mL).
For `CCCC[C@H](CN(O)C=O)C(=O)N[C@H](C(=O)N1CCN(Cc2cccnc2)CC1)C(C)(C)C` [Example 56, 2R-[(Formyl-hydroxy-amino)methyl]-hexanoic acid [2,2-dimethyl-1S-(4-pyridin-3-ylmethyl-piperazine-1-carbonyl)-propyl]-amide] the same measures were 25 µM (≈ 11.5 µg/mL) and 50 µM (≈ 23.1 µg/mL).
Taken in the same sequence, the figures for `CC(C)(C)[C@H](NC(=O)[C@H](CC1CCCC1)CN(O)C=O)C(=O)N1CCN(Cc2ccc3c(c2)OCO3)CC1` [Example 57, N-[1S-(4-Benzo[1,3]dioxol-5-ylmethyl-piperazine-1-carbonyl)-2,2-dimethyl-propyl]-2R-cyclopentylmethyl-3-(formyl-hydroxy-amino)-propionamide] were 6.2 µM (≈ 3.29 µg/mL) and 100 µM (≈ 53.1 µg/mL).
In the case of `CCCC[C@H](CN(O)C=O)C(=O)N[C@H](C(=O)N1CCN(C(=O)c2snnc2C)CC1)C(C)(C)C` [Example 69, 2R-[(Formyl-hydroxy-amino)-methyl]-hexanoic acid {2,2-dimethyl-1S-[4-(4-methyl-[1,2,3]thiadiazole-5-carbonyl)-piperazine-1-carbonyl]-propyl}-amide], the MIC was 25 µM (≈ 12.4 µg/mL) in assay [1] and 200 µM (≈ 99.3 µg/mL) in assay [2].
With `CCCC[C@H](CN(O)C=O)C(=O)N[C@H](C(=O)N1CCN(C(=O)c2sc(C)nc2C)CC1)C(C)(C)C` [Example 74, 2R-[(Formyl-hydroxy-amino)-methyl]-hexanoic acid {1S-[4-(2,4-dimethyl-thiazole-5-carbonyl)-piperazine-1-carbonyl]-2,2-dimethyl-propyl}-amide], the results for the MIC in assay [1] and in assay [2] were 25 µM (≈ 12.7 µg/mL) and 200 µM (≈ 102 µg/mL), respectively.
The compound `CCCC[C@H](CN(O)C=O)C(=O)N[C@H](C(=O)N1CCN(S(=O)(=O)c2ccc(-c3ccccc3)cc2)CC1)C(C)(C)C` [Example 78, 2R-[(Formyl-hydroxy-amino)-methyl]-hexanoic acid {1S-[4-(biphenyl-4-sulfonyl)-piperazine-1-carbonyl]-2,2-dimethyl-propyl}-amide] yielded an MIC in assay [1] of 200 µM (≈ 117 µg/mL).
Same read-out and setting: the figure for `CCCC[C@H](CN(O)C=O)C(=O)N[C@H](C(=O)N1CCN(C(=O)c2ccc(-c3ccccc3)cc2)CC1)C(C)(C)C` [Example 79, 2R-[(Formyl-hydroxy-amino)-methyl]-hexanoic acid {1S-[4-(biphenyl-4-carbonyl)-piperazine-1-carbonyl]-2,2-dimethyl-propyl}-amide] is 6.25 µM (≈ 3.44 µg/mL).
Regarding `CN(C)C(=O)c1ccc(OC2CCN(C(=O)[C@@H](NC(=O)[C@H](CC3CCCC3)CN(O)C=O)C(C)(C)C)CC2)cc1` [Example 88, 4-(1S-{2-[2R-Cyclopentylmethyl-3-(formyl-hydroxy-amino)-propionylamino]-3,3-dimethyl-butyryl}-piperidin-4-yloxy)-N,N-dimethyl-benzamide], the MIC in assay [1] (setting [6]) came out at 6.2 µM (≈ 3.46 µg/mL); in assay [2] (Escherichia coli), 100 µM (≈ 55.9 µg/mL).
Regarding `CC(C)(C)C(NC(=O)[C@H](CC1CCCC1)CN(O)C=O)C(=O)N1CCC(Oc2ccc(C(=O)N3CCOCC3)cc2)CC1` (stereo partly drawn) [Example 89, 2R-Cyclopentylmethyl-N-(2,2-dimethyl-1S-{4-{4-(morpholine-4-carbonyl)-phenoxy}-piperidine-1-carbonyl}-propyl)-3-(formyl-hydroxy-amino)-propionamide], the MIC turned out to be 25 µM (≈ 15 µg/mL) in assay [1] (setting [6]) and 200 µM (≈ 120 µg/mL) in assay [2] (Escherichia coli).
With `CC(C)(C)C(NC(=O)[C@H](CC1CCCC1)CN(O)C=O)C(=O)N1CCC(Oc2ccc(C(=O)N3CCC(O)CC3)cc2)CC1` (stereo partly drawn) [Example 91, 2R-Cyclopentylmethyl-3-(formyl-hydroxy-amino)-N-(1S-{4-[4-(4-hydroxy-piperidine-1-carbonyl)-phenoxy]-piperidine-1-carbonyl}-2,2-dimethyl-propyl)-propionamide], the MIC in assay [1] (setting [6]) was found to be 25 µM (≈ 15.4 µg/mL); in assay [2] (Escherichia coli), 200 µM (≈ 123 µg/mL); in assay [3] (Haemophilus Influenza 1390), 1 µg/mL (≈ 1.63 µM); in assay [3] (Haemophilus Influenza 1414) it was 4 µg/mL (≈ 6.51 µM); in assay [4] (Streptococcus pneumoniae (PIP) 2391) it was 0.25 µg/mL (≈ 0.407 µM); in assay [4] (Streptococcus pneumoniae (PRP) 2390), 0.25 µg/mL (≈ 0.407 µM). In addition, the MIC is 0.25 µg/mL (≈ 0.407 µM) in assay [4] (Streptococcus pneumoniae (PSP) 2403, read-out: MIC); 0.5 µg/mL (≈ 0.813 µM) in assay [5] (Moraxella catarrhalis 2412); 0.25 µg/mL (≈ 0.407 µM) in assay [5] (Moraxella catarrhalis 2413).
